Test results: patent publication US20240287062A1, “NAPHTHYRIDONE COMPOUNDS FOR INHIBITION OF RAF KINASES AND/OR BCR-ABL TYROSINE KINASES” (Enliven Inc., priority 2021, published 2024)
Like-named read-outs stand apart in the source and are kept apart here.

Assays:
Format in all cases: cell-based
SK-MEL-30 (NRAS Q61K) = assay: Cell viability assay (CellTiter Glo); settings: SK-MEL-30, 750 cells per well, read-out: BRAF Cytotoxicity (IC50, nM) SK-MEL-30
Procedure: (§1) Cell viability was measured in the following MAPK pathway mutant cancer cell lines: A375 (BRAF V600E), HepG2 (NRAS Q61L), SK-MEL-30 (NRAS Q61K), and OCI-AML-2 (MBNL1-CRAF fusion). Cell viability was also measured in K562 cells.
(§2) A375, HepG2, SK-MEL-30 and OCI-AML-2 cells were grown in the appropriate growth medium as described in Table B2 below, and harvested at 50-80% confluence. Cells were counted and seeded at their appropriate density (see Table B1) in a 384-well plate (Corning 3570). A375, HepG2 and SK-MEL-30 were allowed to adhere overnight prior to treatment and the OCI-AML-2 were treated immediately for the indicated drug treatment times (Table 6).
(§3) Table 6 provides the growth media, number of cells seeded per well and drug treatment times for the each cell line. K562 cells were grown as described in Example B1 above.
(§4) Compounds were dissolved in DMSO and serially diluted. Serially-diluted compound or a DMSO only control (high control, “HC”) was added to the plated cells in each well. Compounds were tested at concentrations of about 10 μM to 0.51 nM, using three-fold dilutions. The final proportion of DMSO never exceeded 0.1%.
(§5) Plates were placed in a 37° C., […] incubator for the indicated treatment times (Table B1). Plates were then removed from the incubator and equilibrated for 15 minutes at room temperature. 40 μl of CellTiter Glo reagent (Promega) was added to measure the relative level of metabolically active cells by quantifying intracellular ATP concentrations. Plates were incubated for 30 minutes at room temperature, and luminescence was measured. Percent viability was normalized to a vehicle control only using the following formula: 0 viability=100×(LumSample−LumLC)/(LumHC−LumLC). Graphical curves were fitted using a nonlinear regression model with a sigmoidal dose response.

[1] = test system: OCI-AML-2 (MBNL1-CRAF fusion); assay: Cell viability assay (CellTiter Glo); settings: OCI-AML-2, 1000 cells per well, read-out: BRAF Cytotoxicity (IC50, nM) OCI-AML-2
Procedure: as §1, §2, §3, §4, §5

HepG2 (NRAS Q61L) = assay: Cell viability assay (CellTiter Glo); settings: HepG2, 750 cells per well, read-out: BRAF Cytotoxicity (IC50, nM) HEPG2
Procedure: as §1, §2, §3, §4, §5

A375 (BRAF V600E) = assay: Cell viability assay (CellTiter Glo)
Procedure: as §1, §2, §3, §4, §5

K562 cells = assay: Cell viability assay (CellTiter Glo); settings: K562 cells grown as in Example B1, read-out: BRAF Cytotoxicity (IC50, nM) K562
Procedure: K562 cells, cultured in Iscove's Modified Dulbecco's Media (IMDM) supplemented with 10% FBS, were harvested at 50-80% confluency and plated at 2,000 cells per well in 384-well tissue culture plates. A subset of wells contained media only (low control, LC). Compounds were serially diluted in DMSO. 40 nL of compound or DMSO only (high control, HC) were added to each well using an Echo 550 liquid handler (Labcyte). The plates were placed in a 37° C. incubator with 5% CO2 for 72 hours. Cell viability was measured using a CellTiter-Glo luminescent cell viability assay (Promega), which allows for relative quantification of metabolically active cells by luminescence-based measurements of intracellular ATP concentrations. Briefly, plates were removed from the incubator and equilibrated for 15 minutes at room temperature prior to the addition of 40 μL of CellTiter-Glo reagent. Plates were then incubated for 30 minutes at room temperature. Luminescence was measured using an EnSpire plate reader (Perkin Elmer). As noted above, luminescence values from wells with DMSO only or media without cells were used as high and low controls (HC and LC), respectively. Normalized percent viability was calculated as follows: percent viability=100×(LumSample−LumLC)/(LumHC−LumLC). IC50 values were calculated using the XLFit software.
as §1, §3, §4, §5

[2] = test system: phosphorylated ERK (pERK); assay: Detection of phosphorylated ERK (pERK), AlphaLISA in A375 cells; settings: four hours incubation, inhibition of ERK phosphorylation, read-out: PERK ELISA (IC50)
Procedure: A375 cells were counted and seeded at 10,000 cells/well in 384 well plates (Corning 3764) and allowed to adhere overnight.
Compounds were dissolved and serially diluted in DMSO. The compounds were then added, mixed, and incubated for four hours at 37° C., 5% CO2. Compounds were added using four-fold dilutions at final concentrations ranging from 10 μM to 0.01 nM. DMSO only and 10 uM staurosporine were added as high and low controls.
Following the four-hour incubation with compounds, cell lysates were prepared and AlphaLISA assay measuring phosphorylated ERK was performed. Media was removed using the Apricot Designs pipettor. Lysis buffer was made from 1× AlphaLISA SureFire Assay Kit (AlphaLISA SureFire Ultra pERK 12 (Thr202/Tyr204) ALSU-PERK-A50K) lysis buffer with protease and phosphatase inhibitors. Cells were lysed by adding 10 uL to all the wells and mixed for 40 minutes on a plate shaker. 10 uL cell lysate was transferred to a new Optiplate (PerkinElmer 6007290) and incubated with 5 uL 1× acceptor mix for 2 hours in the dark. 5 uL of 1× donor mix was added to all wells and mixed by shaking followed by overnight incubation in the dark.
pERK AlphaLISA signal was read on the Envision using standard AlphaLISA settings. Percent inhibition of ERK phosphorylation was calculated by % Inhibition=100×(LumHC−LumSample)/(LumHC−LumLC). The low and high controls (LC/HC) are generated from lysate from wells with cells treated with DMSO or […] Staurosporine (BioAustralis, cat #BIA-S1086), […]. IC50 values were calculated by fitting the Curve using XLfit (v5.3.1.3), equation 201: Y=Bottom+(Top−Bottom)/(1+10^((Log IC50−X)*HillSlope)).

[3] = A375, 250 cells seeded per well, 72 hours, read-out: BRAF Cytotoxicity (IC50, nM) A375 (250 cells)
[4] = A375, 1000 cells seeded per well, 72 hours, read-out: BRAF Cytotoxicity (IC50, nM) A375 (1000 cells)
[5] = Homo sapiens, A-375, 72 h, A375, 250 cells seeded per well, read-out: BRAF Cytotoxicity (IC50, nM) A375 (250 cells)
[6] = Homo sapiens, A-375, 72 h, A375, 1000 cells seeded per well, read-out: BRAF Cytotoxicity (IC50, nM) A375 (1000 cells)

| SMILES | IC50 ([2]; Homo sapiens, A-375, 4 h) [µM] | IC50 [2] [µM] | IC50 (SK-MEL-30 (NRAS Q61K); 120 hours) [nM] | IC50 ([1]; 72 hours) [nM] | IC50 (HepG2 (NRAS Q61L); 120 hours) [nM] | IC50 (A375 (BRAF V600E); [3]) [nM] | IC50 (A375 (BRAF V600E); [4]) [nM] | IC50 (K562 cells; Homo sapiens) [nM] | IC50 (A375 (BRAF V600E); [5]) [nM] | IC50 (SK-MEL-30 (NRAS Q61K); Homo sapiens, SK-MEL-30, 120 h) [nM] | IC50 ([1]; Homo sapiens, OCI-AML2, 72 h) [nM] | IC50 (HepG2 (NRAS Q61L); Homo sapiens, HepG2, 120 h) [nM] | IC50 (K562 cells) [nM] | IC50 (A375 (BRAF V600E); [6]) [nM] |
| --- | --- | --- | --- | --- | --- | --- | --- | --- | --- | --- | --- | --- | --- | --- |
| CC[C@H](O)c1cc(C)c(-c2cc3cnc(NC(=O)C4CC4)cc3n(C)c2=O)cn1 [Compound 69, N-(3-[6-[(1S)-1-hydroxypropyl]-4-methylpyridin-3-yl]-1-methyl-2-oxo-1,6-naphthyridin-7-yl)cyclopropanecarboxamide] | 0.0431 |  |  |  |  |  |  | 496 | 372 | 517 | 485 | 107 |  | 354 |
| CC[C@H](O)c1cc(C)c(-c2cc3cnc(NC(=O)[C@H]4C[C@H]4F)cc3n(C)c2=O)cn1 [Compound 108, (1R,2R)-2-fluoro-N-(3-(6-((S)-1-hydroxypropyl)-4-methylpyridin-3-yl)-1-methyl-2-oxo-1,2-dihydro-1,6-naphthyridin-7-yl)cyclopropane-1-carboxamide] | 0.0174 |  |  |  |  |  |  | 1980 | 422 | 311 | 309 | 88.7 |  | 308 |
| CCC(=O)c1cc(C)c(-c2cc3cnc(NC(=O)[C@H]4C[C@H]4F)cc3n(C)c2=O)cn1 [Compound 148, (1R,2R)-2-fluoro-N-(1-methyl-3-(4-methyl-6-propionylpyridin-3-yl)-2-oxo-1,2-dihydro-1,6-naphthyridin-7-yl)cyclopropane-1-carboxamide] | 0.0193 |  |  |  |  |  |  | 2640 |  |  |  |  |  |  |
| CCCC(=O)c1cc(C)c(-c2cc3cnc(NC(=O)[C@@H]4C[C@@H]4F)cc3n(C)c2=O)cn1 [Compound 152, (1S,2S)—N-(3-(6-butyryl-4-methylpyridin-3-yl)-1-methyl-2-oxo-1,2-dihydro-1,6-naphthyridin-7-yl)-2-fluorocyclopropane-1-carboxamide] | 0.00899 |  |  |  |  |  |  | 534 | 116 | 585 | 412 | 257 |  |  |

The next lines start with results.

| IC50 ([2]; Homo sapiens, A-375, 4 h) [µM] | IC50 [2] [µM] | SMILES | IC50 (SK-MEL-30 (NRAS Q61K); 120 hours) [nM] | IC50 ([1]; 72 hours) [nM] | IC50 (HepG2 (NRAS Q61L); 120 hours) [nM] | IC50 (A375 (BRAF V600E); [3]) [nM] | IC50 (A375 (BRAF V600E); [4]) [nM] | IC50 (K562 cells; Homo sapiens) [nM] | IC50 (A375 (BRAF V600E); [5]) [nM] | IC50 (SK-MEL-30 (NRAS Q61K); Homo sapiens, SK-MEL-30, 120 h) [nM] | IC50 ([1]; Homo sapiens, OCI-AML2, 72 h) [nM] | IC50 (HepG2 (NRAS Q61L); Homo sapiens, HepG2, 120 h) [nM] | IC50 (K562 cells) [nM] | IC50 (A375 (BRAF V600E); [6]) [nM] |
| --- | --- | --- | --- | --- | --- | --- | --- | --- | --- | --- | --- | --- | --- | --- |
| 0.00801 |  | CCCC(O)c1cc(C)c(-c2cc3cnc(NC(=O)[C@H]4C[C@H]4F)cc3n(C)c2=O)cn1 (single isomer, unassigned) [Example S43, Isomer A] | 399 | 457 | 82.1 | 152 | 52.1 | 1690 |  |  |  |  |  |  |
|  | 0.0147 | CCCC(O)c1cc(C)c(-c2cc3cnc(NC(=O)[C@H]4C[C@H]4F)cc3n(C)c2=O)cn1 (single isomer, unassigned) [Example S43, Isomer B] | > 6150 | 2710 | 843 | 335 | 189 |  |  |  |  |  |  |  |
|  | 0.00864 | CCC(O)c1cc(C)c(-c2cc3cnc(NC(=O)[C@H]4CC4(F)F)cc3n(C)c2=O)cn1 (single isomer, unassigned) [Example S49, Isomer B] | 103 | 153 | 12.6 |  |  | 733 | 74.9 |  |  |  |  |  |
|  | 0.0785 | CCC(O)c1cc(C)c(-c2cc3cnc(NC(C)=O)cc3n(C)c2=O)cn1 (single isomer, unassigned) [Example S59, Enantiomer A, N-(3-(6-(1-hydroxypropyl)-4-methylpyridin-3-yl)-1-methyl-2-oxo-1,2-dihydro-1,6-naphthyridin-7-yl)acetamide] |  |  |  |  |  | > 10000 |  |  |  |  |  |  |
|  | 0.00723 | CCCC(O)c1cc(C)c(-c2cc3cnc(NC(C)=O)cc3n(C)c2=O)cn1 (single isomer, unassigned) [Example S67, Enantiomer A, N-(3-{6-[1-hydroxybutyl]-4-methylpyridin-3-yl}-1-methyl-2-oxo-1,6-naphthyridin-7-yl)acetamide] |  |  |  |  |  | 9480 | 215 | 974 | 1390 | 252 |  |  |
|  | 0.0474 | CCC(O)c1cc(C)c(-c2cc3cnc(NC(=O)[C@@H]4C[C@@H]4F)cc3n(C)c2=O)cn1 (single isomer, unassigned; isomer a) [Example S40, Isomer A] | 446 | 496 | 211 |  | 492 |  |  |  |  |  | 1230 |  |
